Test results from the OligoGym collection.
Oligonucleotides are written 5' to 3', each unit as a sugar letter and its base; * is a phosphorothioate linkage, no mark a phosphodiester; rarer units and linkages stand in square brackets, end groups in braces. Plain capitals give the bases only. Oligonucleotides are given in HELM: sugar(base)linkage, 5' to 3'; d 2'-deoxyribose, r ribose, m 2'-O-methylribose, p phosphate. ss, as = sense and antisense strand; d = 2'-deoxy (DNA); r = 2'-OH (RNA)

Each substance was assayed against UBE2G1 (assay: reporter assay of Huesken 2005). Conditions: siRNA.
Note: test concentration or dose not given here.

Substance	normalised inhibition (eCFP-eYFP dual reporter) [%]
sense rArArArArGrCrCrArGrArGrGrArArCrGrCrUrGdTdT / antisense rCrArGrCrGrUrUrCrCrUrCrUrGrGrCrUrUrUrUdCdA	32.6
sense rArArArCrCrArUrCrArUrGrArUrUrArGrUrGrUdTdT / antisense rArCrArCrUrArArUrCrArUrGrArUrGrGrUrUrUdCdC	66.9
sense rArArArGrUrUrGrCrCrCrGrCrUrGrUrGrUrArAdTdT / antisense rUrUrArCrArCrArGrCrGrGrGrCrArArCrUrUrUdTdC	93.9
sense rArArCrCrArUrCrArUrGrArUrUrArGrUrGrUrCdTdT / antisense rGrArCrArCrUrArArUrCrArUrGrArUrGrGrUrUdTdC	65.4
sense rArArGrCrCrArGrArGrGrArArCrGrCrUrGrGrCdTdT / antisense rGrCrCrArGrCrGrUrUrCrCrUrCrUrGrGrCrUrUdTdT	35.9
sense rArArGrUrUrGrCrCrCrGrCrUrGrUrGrUrArArGdTdT / antisense rCrUrUrArCrArCrArGrCrGrGrGrCrArArCrUrUdTdT	79
sense rArArUrCrUrGrGrCrArCrCrCrArArArUrGrUrUdTdT / antisense rArArCrArUrUrUrGrGrGrUrGrCrCrArGrArUrUdTdC	73.4
sense rArArUrGrGrArGrGrGrArArGrArUrArGrArArAdTdT / antisense rUrUrUrCrUrArUrCrUrUrCrCrCrUrCrCrArUrUdCdT	85.9
sense rArArUrGrUrUrGrArUrGrCrUrGrCrGrArArArGdTdT / antisense rCrUrUrUrCrGrCrArGrCrArUrCrArArCrArUrUdAdG	93.5
sense rArCrArCrUrGrUrGrGrArArArCrCrArUrCrArUdTdT / antisense rArUrGrArUrGrGrUrUrUrCrCrArCrArGrUrGrUdGdG	89.3
sense rArCrCrUrCrCrUrArArArArUrGrArArArUrUrCdTdT / antisense rGrArArUrUrUrCrArUrUrUrUrArGrGrArGrGrUdCdG	39.5
sense rArCrCrUrGrCrUrArArUrGrUrUrGrArUrGrCrUdTdT / antisense rArGrCrArUrCrArArCrArUrUrArGrCrArGrGrUdGdA	93.9
sense rArGrArCrCrCrUrArArUrGrGrArGrArCrUrCrAdTdT / antisense rUrGrArGrUrCrUrCrCrArUrUrArGrGrGrUrCrUdGdC	89.8
sense rArGrArCrUrCrArCrCrUrGrCrUrArArUrGrUrUdTdT / antisense rArArCrArUrUrArGrCrArGrGrUrGrArGrUrCrUdCdC	81.1
sense rArGrArUrArCrArCrUrUrUrArUrGrArArGrGrUdTdT / antisense rArCrCrUrUrCrArUrArArArGrUrGrUrArUrCrUdGdG	78.7
sense rArGrArUrArGrArArArUrGrGrArGrArArUrUrUdTdT / antisense rArArArUrUrCrUrCrCrArUrUrUrCrUrArUrCrUdTdC	102
sense rArGrArUrUrArUrCrCrCrCrUrCrCrGrArCrCrUdTdT / antisense rArGrGrUrCrGrGrArGrGrGrGrArUrArArUrCrUdTdT	84.2
sense rArGrCrCrArGrArGrGrArArCrGrCrUrGrGrCrUdTdT / antisense rArGrCrCrArGrCrGrUrUrCrCrUrCrUrGrGrCrUdTdT	37.8
sense rArGrCrCrUrGrGrGrGrArArGrArUrArArGrUrAdTdT / antisense rUrArCrUrUrArUrCrUrUrCrCrCrCrArGrGrCrUdCdA	78.6
sense rArGrUrGrUrCrArUrUrUrCrUrArUrGrCrUrGrGdTdT / antisense rCrCrArGrCrArUrArGrArArArUrGrArCrArCrUdAdA	47.6
sense rArUrArArGrUrArUrGrGrUrUrArUrGrArArArAdTdT / antisense rUrUrUrUrCrArUrArArCrCrArUrArCrUrUrArUdCdT	69.3
sense rArUrCrCrArGrUrGrGrArArGrGrCrUrUrUrUrCdTdT / antisense rGrArArArArGrCrCrUrUrCrCrArCrUrGrGrArUdTdT	65.4
sense rArUrCrUrCrUrArCrCrGrArUrGrGrGrArArGrUdTdT / antisense rArCrUrUrCrCrCrArUrCrGrGrUrArGrArGrArUdCdA	67.7
sense rArUrGrArCrArArUrGrArUrCrUrCrUrArCrCrGdTdT / antisense rCrGrGrUrArGrArGrArUrCrArUrUrGrUrCrArUdCdT	40.5
sense rArUrGrGrUrUrArUrGrArArArArGrCrCrArGrAdTdT / antisense rUrCrUrGrGrCrUrUrUrUrCrArUrArArCrCrArUdAdC	39.2

Substance	normalised inhibition (eCFP-eYFP dual reporter) [%]
sense rArUrGrUrUrGrArUrGrCrUrGrCrGrArArArGrAdTdT / antisense rUrCrUrUrUrCrGrCrArGrCrArUrCrArArCrArUdTdA	104
sense rArUrUrGrGrCrCrCrUrCrCrArGrArUrArCrArCdTdT / antisense rGrUrGrUrArUrCrUrGrGrArGrGrGrCrCrArArUdAdA	36.1
sense rCrArArUrGrArUrCrUrCrUrArCrCrGrArUrGrGdTdT / antisense rCrCrArUrCrGrGrUrArGrArGrArUrCrArUrUrGdTdC	86.7
sense rCrArCrCrCrArArArUrGrUrUrGrArUrArArArAdTdT / antisense rUrUrUrUrArUrCrArArCrArUrUrUrGrGrGrUrGdCdC	73.1
sense rCrArGrArGrGrArArCrGrCrUrGrGrCrUrCrCrCdTdT / antisense rGrGrGrArGrCrCrArGrCrGrUrUrCrCrUrCrUrGdGdC	42.5
sense rCrArGrGrUrUrUrArArUrArGrArUrGrArCrArAdTdT / antisense rUrUrGrUrCrArUrCrUrArUrUrArArArCrCrUrGdCdA	97.5
sense rCrArUrGrArGrCrCrUrGrGrGrGrArArGrArUrAdTdT / antisense rUrArUrCrUrUrCrCrCrCrArGrGrCrUrCrArUrGdAdA	76
sense rCrArUrUrArCrArGrArArArUrCrUrGrGrCrArCdTdT / antisense rGrUrGrCrCrArGrArUrUrUrCrUrGrUrArArUrGdAdA	50.1
sense rCrCrArCrArCrUrGrUrGrGrArArArCrCrArUrCdTdT / antisense rGrArUrGrGrUrUrUrCrCrArCrArGrUrGrUrGrGdAdT	86.1
sense rCrCrCrUrCrCrGrArCrCrUrCrCrUrArArArArUdTdT / antisense rArUrUrUrUrArGrGrArGrGrUrCrGrGrArGrGrGdGdA	62.4
sense rCrCrUrArArArArUrGrArArArUrUrCrArUrUrAdTdT / antisense rUrArArUrGrArArUrUrUrCrArUrUrUrUrArGrGdAdG	69.6
sense rCrCrUrGrCrUrArArUrGrUrUrGrArUrGrCrUrGdTdT / antisense rCrArGrCrArUrCrArArCrArUrUrArGrCrArGrGdTdG	97.5
sense rCrUrArArUrGrGrArGrArCrUrCrArCrCrUrGrCdTdT / antisense rGrCrArGrGrUrGrArGrUrCrUrCrCrArUrUrArGdGdG	71.9
sense rCrUrCrCrCrUrArUrCrCrArCrArCrUrGrUrGrGdTdT / antisense rCrCrArCrArGrUrGrUrGrGrArUrArGrGrGrArGdCdC	62.9
sense rCrUrCrCrUrArArArArUrGrArArArUrUrCrArUdTdT / antisense rArUrGrArArUrUrUrCrArUrUrUrUrArGrGrArGdGdT	87.9
sense rCrUrCrUrArCrCrGrArUrGrGrGrArArGrUrCrCdTdT / antisense rGrGrArCrUrUrCrCrCrArUrCrGrGrUrArGrArGdAdT	68.3
sense rCrUrGrGrGrGrArArGrArUrArArGrUrArUrGrGdTdT / antisense rCrCrArUrArCrUrUrArUrCrUrUrCrCrCrCrArGdGdC	55
sense rGrArArGrUrCrCrUrUrArUrUrArUrUrGrGrCrCdTdT / antisense rGrGrCrCrArArUrArArUrArArGrGrArCrUrUrCdCdC	87.6
sense rGrArCrArArUrGrArUrCrUrCrUrArCrCrGrArUdTdT / antisense rArUrCrGrGrUrArGrArGrArUrCrArUrUrGrUrCdAdT	103
sense rGrArGrArArUrUrUrArArArArGrArArArArGrUdTdT / antisense rArCrUrUrUrUrCrUrUrUrUrArArArUrUrCrUrCdCdA	56.4
sense rGrArUrArArGrUrArUrGrGrUrUrArUrGrArArAdTdT / antisense rUrUrUrCrArUrArArCrCrArUrArCrUrUrArUrCdTdT	87.7
sense rGrArUrArCrArCrUrUrUrArUrGrArArGrGrUrGdTdT / antisense rCrArCrCrUrUrCrArUrArArArGrUrGrUrArUrCdTdG	66
sense rGrArUrUrArUrCrCrCrCrUrCrCrGrArCrCrUrCdTdT / antisense rGrArGrGrUrCrGrGrArGrGrGrGrArUrArArUrCdTdT	84.7
sense rGrCrCrCrUrCrCrArGrArUrArCrArCrUrUrUrAdTdT / antisense rUrArArArGrUrGrUrArUrCrUrGrGrArGrGrGrCdCdA	75.2

The substances below were run against UBE2N (assay: reporter assay of Huesken 2005). Conditions: siRNA.

Substance	normalised inhibition (eCFP-eYFP dual reporter) [%]
RNA1{r(U)p.r(U)p.r(U)p.r(U)p.r(G)p.r(A)p.r(A)p.r(A)p.r(G)p.r(A)p.r(U)p.r(A)p.r(A)p.r(G)p.r(U)p.r(G)p.r(G)p.r(U)p.r(C)p.d(T)p.d(T)}|RNA2{r(G)p.r(A)p.r(C)p.r(C)p.r(A)p.r(C)p.r(U)p.r(U)p.r(A)p.r(U)p.r(C)p.r(U)p.r(U)p.r(U)p.r(C)p.r(A)p.r(A)p.r(A)p.r(A)p.d(T)p.d(A)}$$$RNA1{StrandType:ss}|RNA2{StrandType:as}$	35.5
